{
  "source": "paper PMC5672024",
  "about": "“Selective Glucocorticoid Receptor Properties of GSK866 Analogs with Cysteine Reactive Warheads” (Frontiers in Immunology, 2017)",
  "key": {"[1]": {"system": "GR Ser211 phosphorylation", "test": "Western blot of GR Ser211 phosphorylation", "format": "cell-based", "details": "for concentration dependence of GR Ser211 phosphorylation: HaCat cells, 6 h, 10, 100 or 1,000 nM", "method": "Whole cell extracts contain multiple protease inhibitors (Complete Mini®, Roche) and Halt phosphatase inhibitor cocktail (Thermoscientific). Soluble protein extracts were obtained after three times freeze and thaw cycles and centrifugation at […] for 15 min at 4°C. Samples were separated by sodium dodecyl sulfate-polyacrylamidegel electrophoresis (SDS-PAGE) and transferred onto nitrocellulose membranes (Hybond C, Amersham) following standard protocols. After blocking, membranes were incubated overnight at 4°C with the primary antibodies: anti-GR (sc-8992, SantaCruz Biotechnology), anti-phospho-GR Ser211 (4161, Cell Signalling) and anti-Actin (A3853, Sigma-Aldrich) followed by dye-conjugated secondary antibodies (LI-COR® Biosciences). Bound complexes were detected with the Odyssey® infrared imaging system (LI-COR®) and quantified by Image J software.\nFigure 5 Selective glucocorticoid receptor agonist GSK866 and its analogs UAMC-1217, UAMC-1218 trigger glucocorticoid receptor (GR) Ser211 phosphorylation. (A) Western detection of expression levels of Actin, GR, and GR Ser S211 phosphorylation in HaCat cells following 6 h treatment with 1 µM Dex, UAMC-1217, UAMC-1218, or GSK866. (B) Bar plot representation of Western blot intensities of Actin, GR, and GR Ser S211 phosphorylation observed in panel A, as quantified by Image J. (C) Western detection of expression levels of Actin, GR expression, and Ser S211 phosphorylation in HaCat cells following 6 h treatment with, respectively, 10, 100, or 1,000 nM Dex or UAMC-1217. (D) Bar plot representation of Western blot intensities of Actin, GR, and GR Ser S211 phosphorylation observed in panel (C), as quantified by free Image J software."}, "[2]": {"system": "TNF-induced NFκB reporter gene activity in L929sA cells", "test": "p(NFκB)3-50luc reporter gene assay with TNF (NFκB transrepression)", "format": "cell-based", "details": "TNF 2,500 IU/ml; for inhibition at 0.01 µM: L929sA, 10 nM compound", "method": "In order to compare transactivation and transrepression potencies of the different synthesized GSK866 analogs, we performed GRE- and NFκB-luciferase-dependent reporter gene studies in stable transfected cell lines, as previously described ([3], [8]). HaCat cells expressing p(GRE)2 50-Luc and L929sA cells expressing p(GRE)250-Luc or p(NFκB)350-Luc were cultured in DMEM medium with 1% L-glutamine, supplemented with 10% feral bovine serum (FBS), 100 µg/ml streptomycin, and 100 IU/mL penicillin in a humidified 5% CO2 atmosphere. Cells were passaged every 2 days at a dilution of 1:6. Reporter gene cells were plated at a density of 0.5 × 10^5 cells/well in 24 well plates and grown overnight. p(GRE)250-Luc-dependent reporter gene cells were treated with solvent (DMSO) or compound (100 fM, 1 nM, 10 nM, 100 nM, and 1 µM) for 6 h, whereas in case of p(NFκB)350-Luc, TNF (2,500 IU/mL) was added 2 h following compound treatment. After incubation with the compounds, medium was removed and cells were washed twice with PBS followed by adding 100 µl of 1× lysis buffer (0.2 M K2HPO4, 0.2 M KH2PO4, Triton X-100, pH 7.6). 25 µl of lysate was assayed for luciferase activity by adding 50 µl of luciferase assay substrate (1 mM luciferin or luciferin salt, 3 mM ATP, and 15 mM MgSO4 in 30 mM HEPES buffer, pH 7.8) followed by 10 s mixing and measuring 1 s bioluminescence using an Envision multilabel reader (Perkin Elmer).\nFigure 3 Selective glucocorticoid receptor agonist GSK866 analogs UAMC-1217, UAMC-1218 but not UAMC-1158 and UAMC-1159 elicit selective glucocorticoid receptor-transactivation and NFκB-transrepression properties. Glucocorticoid response element (GRE)- and NFκB-luciferase-dependent reporter gene assays were performed in L929sA and HaCat reporter cells which were stably transfected with, respectively, p(NFκB)3-50luc or p(GRE)2-50-luc constructs. For p(GRE)2-50-luc reporter assays, cells were solvent-treated or induced with different concentrations of Dex (A), Dex-mesylate (Dex-Mes) (A), SEGRA GSK866 (C) or analogs UAMC-1158 (D), UAMC-1159 (E), UAMC-1217 (F), and UAMC-1218 (G) as indicated for a total exposure time of 6 h, whereas cells were cotreated for TNF (2,500 IU/ml) in the last 4 h for p(NFkB)3-50luc reporter assays (B–G). Corresponding lysates were assayed for luciferase activities and normalized for protein content as described in the Section “Materials and Methods.” Promoter activities are expressed as relative induction factor (± standard deviation) i.e., the ratio of expression levels recorded either at induced and non-induced conditions, with the latter taken to be 1."}, "[3]": {"system": "IL6 mRNA", "test": "qPCR of TNF-inducible IL6 in HaCat cells", "format": "cell-based", "details": "6 h, 10, 100 or 1,000 nM, TNF 2,500 IU/ml last 4 h", "method": "qPCR was performed using the GoTaq qPCR Master Mix (Promega) according to manufacturer’s instructions. In short, a 25 µl reaction volume mix per sample was prepared containing 12.5 µl GoTaq qPCR Master Mix, 0.4 µM forward and reverse primer, and nuclease-free water. We used the Rotor-Gene Q qPCR machine of Qiagen with following PCR program: 95°C for 2 min, 40 cycli denaturation (95°C, 15 s) and annealing/extension (60°C, 30 s), and dissociation (60–95°C). […] Each sample was run in triplicate. The median value of the triplicates were taken to calculate the deltaCt-values using GAPDH as the normalization gene.\n(A) QPCR assays was performed against the GR target gene GILZ/TSC22D3 in HaCat cells treated for 6 h with different concentrations 10, 100 or 1,000 nM Dex or UAMC-1217. Bar graph plot represents the relative mRNA levels of GILZ/TSC22D3 upon Dex or UAMC-1217 treatment. (B) QPCR assays was performed against the TNF-inducible inflammatory gene interleukin-6 (IL6) in HaCat cells treated for 6 h with different concentrations 10, 100, or 1,000 nM Dex or UAMC-1217 either or not, cotreated for the last 4 h with TNF (2,500 IU/ml) as indicated in panel (B). […] Significant mean differences versus control setups panel (A) or TNF treated setup panel (B) are marked as *** (P < 0.001), **(P < 0.01), * (P < 0.05) and were determined by one-way ANOVA (Dunnetts Posttest)."}, "[4]": {"system": "GR", "design": "method as in PMID 27612544", "details": "ref [14], cited from earlier work; for % inhibition of GR ligand binding: 1.5 nM [3H]-dexamethasone, 1 µM ligand"}},
  "data": [
    {"smiles": "C[C@@H]1C[C@H]2[C@@H]3CCC4=CC(=O)C=C[C@]4(C)[C@@]3(F)[C@@H](O)C[C@]2(C)[C@@]1(O)C(=O)CO", "note": "[Dex, Dexamethasone, reference compound]", "values": [
      {"measurement": "concentration dependence of GR Ser211 phosphorylation", "setting": "[1]", "result": "concentration-dependent increase of GR Ser211 phosphorylation"},
      {"measurement": "inhibition at 0.01 µM", "setting": "[2]", "result": "40 to 45", "unit": "%"},
      {"measurement": "TNF-induced IL6 gene expression", "setting": "[3]", "result": "dose-dependently reverse TNF induced IL6 gene expression"},
      {"measurement": "% inhibition of GR ligand binding", "setting": "[4]", "result": 100, "unit": "%"}
    ]},
    {"smiles": "CCN(C[C@@](O)(CNC(=O)c1cnn(-c2ccc(F)cc2)c1N)C(F)(F)F)C(=O)c1c(Cl)ccc(NC(=O)CCl)c1Cl", "note": "[UAMC-1217]", "values": [
      {"measurement": "GR Ser211 phosphorylation", "setting": "[1]; 1 µM, 6 h (UAMC-1158: Figure S2, 4 or 24 h)", "result": "enhance the Ser211 phosphorylation"},
      {"measurement": "concentration dependence of GR Ser211 phosphorylation", "setting": "[1]", "result": "concentration-dependent increase of GR Ser211 phosphorylation"},
      {"measurement": "inhibition at 0.01 µM", "setting": "[2]", "result": "~95", "unit": "%"},
      {"measurement": "NFκB transrepression in NFκB-luc reporter", "setting": "[2]; dose range", "result": "dose-dependent NFκB-transrepression effects"},
      {"measurement": "TNF-induced IL6 gene expression", "setting": "[3]", "result": "dose-dependently reverse TNF induced IL6 gene expression"},
      {"measurement": "% inhibition of GR ligand binding", "setting": "[4]", "result": 92, "unit": "%"},
      {"measurement": "IC50", "setting": "[4]; displacement of radiolabeled Dex, read-out: IC50 (GR radioligand binding)", "result": 22, "unit": "nM"},
      {"measurement": "Ki", "setting": "[4]; displacement of radiolabeled Dex, read-out: Ki (GR radioligand binding)", "result": 11, "unit": "nM"}
    ]}
  ]
}
